The source of these data is patent US5273991A, “Imidazole-containing compositions and methods of use thereof analogs of distamycin” (Research Corporation Technologies, Inc., priority 1992, dated 1993).

One assay has as its system HL-60 (TB). Nature of the assay: NCI cytotoxicity screen (SRB). It is filed as cell-based, human.
The target in a further assay is poly(dAdT). Nature of the assay: ethidium displacement assay, poly(dAdT). The assay is classed as binding. The note with it: ± 0.02 × 10^5 M^-1, pH 7.4. An excerpt: The ethidium displacement assay is based on the fact that ethidium binding to DNA causes a large (approximately 25 fold) florescence enhancement as a result of the hydrophobic environment surrounding the ethidium molecule. Displacement of ethidium results in decreased fluorescence, and thus binding constants of drugs to DNA can be estimated and compared by measuring the loss of fluorescence as a function of added drug. The drug concentration which produces 50% inhibition of florescence is approximately inversely proportional to the apparent binding constant.
The relative DNA binding constants (Kapp) of distamycin and Compounds 6-10 to calf thymus DNA, T4 coliphage DNA, poly(dAdT) and poly(dGdC) were determined using the ethidium displacement assay (Morgan et al., 1979). The Kapp of ethidium bromide (Debart et al., 1989) is included for comparison. 25 μL of a 2A260 DNA solution was added to 2 mL of ethidium bromide buffer (250 μL of 1.3 mM ethidium bromidestock, 314.9 mg Tris-HCl, 60.8 mg Tris base and 930/mg of Na2 EDTA.2H2 O in 250 ml H2 O) pH 7.4 and the maximum fluorescence was measured (excitation wavelength=546 nm, emission wavelength=600 nm) at ambient temperature.
DNA solutions of 2A260 were prepared as follows: T4 coliphage DNA: 10 units of DNA were dissolved in 1 mL of 10 mM sodium phosphate (pH 7.1) and 0.25 mM EDTA buffer to give a 10A260 solution. 0.3 mL of the stock solution were diluted to 1.5 mL with 10 mM sodium phosphate (pH 7.1) and 0.25 mM EDTA buffer to give a 2A260 solution. Calf thymus DNA: 100 units of DNA were dissolved in 5 mL of 10 mM sodium phosphate (pH 7.1) and 0.25 mM EDTA buffer to give a 20A260 solution. 1.5 mL of the stock solution were diluted to 15 mL with 10 mM sodium phosphate (pH 7.1) and 0.25 mM EDTA buffer to give a 2A260 solution. Poly(dA-dT) and Poly(dG-dC) DNA: 100 units of DNA were dissolved in 10 mL of 10 mM sodium phosphate pH 7.1) and 0.25 mM EDTA buffer to give a 10A260 solution. 3 mL of the stock solution were diluted to 15 mL with 10 mM sodium phosphate (pH 7.1) and 0.25 mM EDTA buffer to give a 2A260 solution.
Aliquots of 10 mM stock drug solution (1 mg of drug to be tested was dissolved with 1 mole equivalent of 0.1M HCl, and then diluted with appropriate volume of distilled water to make a 10 mM solution) were then added to the fluorescing solution and the florescence measured after each addition until a 50% reduction of fluorescence occurred. If the 10 mM stock solution lowered the % fluorescence too quickly, the stock solution was further diluted to 1 mM prior to titration. The apparent binding constant was then calculated from this equation: KEtBr [EtBr]=Kapp [drug], where [drug]=the concentration of drug at a 50% reduction of fluorescence and KEtBr [1×10^7 M^-1 for calf thymus and coliphage T4 DNA^18, 9.5×10^6 M^-1 for poly(dA.dT)^30, and 9.9×10^6 M^-1 for poly(dG.dC)^30 ] and [EtBr] were known. The concentration of ethidium bromide was 1.3 μM. The Kapp values are shown in Table I. In a separate experiment, the Kapp of Compound 5 for calf thymus DNA and poly[dGdC] were determined to be 0.3×10^5 M^-1 and 2.6×10^5 M^-1, respectively. The error in these measurements is ±[…].

For assay [1], the system named is human chronic myelogenous leukemic K562 cells. As to the kind of experiment: growth inhibition of K562 cells (MTT viability assay). It is filed as cell-based. The note with it: 1 hour drug exposure at 37° C.; 5-6 days; MTT. How it is done: The ability of the compounds of the present invention to inhibit the growth of human chronic myelogenous leukemic K562 cells was determined as follows.
The incubation was terminated by centrifugation (5 minutes, 300 g) and the cells washed once with drug-free medium.
Following the appropriate drug treatment, the cells were transferred to 96-well microtiter plates, 10^4 cells per well, 8 wells per sample. Plates were then kept in the dark at 37° C. in a humidified atmosphere containing 5% CO2. […] Following incubation of the plates of 5-6 days (to allow control cells to increase in the number by 10 fold) 20 μL of a 5 mg/mL solution of MTT in phosphate buffered saline was added to each well and the plates further incubated for 5 h. The plates were then centrifuged for 5 minutes at 300 g and the bulk of the medium pipetted from the cell pellet leaving 10-20 μL per well. 200 μL DMSO was added to each well and the samples agitated to ensure complete mixing. The optical density was then read at a wavelength of 550 nm on a Titertek Multiscan ELISA plate reader and the dose-response curve constructed.
For orientation: Tetrazolium assays rely on reduction of a dye to a coloured formazan, in cell work by metabolically active cells.

The IC50 is the point on the concentration scale where inhibition reaches its midpoint. Low values mean higher potency, high ones lower potency. Turning to `CN(C)CCNC(=O)c1nc(NC(=O)c2nc(NC(=O)CCCc3ccc(N(CCCl)CCCl)cc3)cn2C)cn1C` [Compound 9, N-(N',N'-dimethylaminoethyl)-1-methyl-4-{4-[4,4-bis(2-chloroethyl)aminophenyl-1-butanamido]-1-methylimidazole-2-carboxamido}imidazole-2-carboxamide], the IC50 in the assay on HL-60 (TB) (48 h, Leukemia HL-60 (TB)) worked out at 43.8 µM; in assay [1], 70 µM. Also, the “Association constant Kapp” value at poly(dAdT) was 54000 M⁻¹.
The corresponding values for `CN(C)CCNC(=O)c1nc(NC(=O)c2nc(NC(=O)c3nc(NC(=O)CCCc4ccc(N(CCCl)CCCl)cc4)cn3C)cn2C)cn1C` [Compound 10, N-(N',N'-dimethylaminoethyl)-1-methyl-4-{1-methyl-4-[4-(4,4-bis(2-chloroethyl)aminophenyl-1-butanamido)-1-methylimidazole-2-carboxamido]imidazole-2-carboxamido}imidazole-2-carboxamide] are 7.89 µM, 28 µM and 13000 M⁻¹.
On to `CN(C)CCNC(=O)c1nc(NC(=O)c2nc(NC(=O)c3ccc(N(CCCl)CCCl)cc3)cn2C)cn1C` [Compound 6, N-(N',N'-dimethylaminoethyl)-1-methyl-4-{4-[4,4-bis(2-chloroethyl)aminobenzamido]-1-methylimidazole-2-carboxamido}imidazole-2-carboxamide], for which the IC50 in the assay with HL-60 (TB) (48 h, Leukemia HL-60 (TB)) amounted to 7.84 µM; with HL-60 (TB) (HL-60 (TB), subsequent test date), 7.93 µM; in assay [1], 12.5 µM. Also, the “Association constant Kapp” value on poly(dAdT) is 475000 M⁻¹.
For `CN(C)CCNC(=O)c1nc(NC(=O)c2nc(NC(=O)c3nc(NC(=O)c4ccc(N(CCCl)CCCl)cc4)cn3C)cn2C)cn1C` [Compound 7, N-(N',N'-dimethylaminoethyl)-1-methyl-4-{1-methyl-4-[4-(4,4-bis-(2-chloroethyl)aminobenzamido)-1-methylimidazole-2-carboxamido]imidazole-2-carboxamido}imidazole-2-carboxamide], the IC50 with HL-60 (TB) (48 h, Leukemia HL-60 (TB)) came to 0.72 µM; in assay [1], 0.3 µM. The “Association constant Kapp” value at poly(dAdT) turned out to be 950000 M⁻¹.
For `CN(C)CCNC(=O)c1nc(NC(=O)c2nc(NC(=O)c3nc(NCc4ccc(N(CCCl)CCCl)cc4)cn3C)cn2C)cn1C` [Compound 8, N-(N',N'-dimethylaminoethyl)-1-methyl-4-{1-methyl-4-[4-(4,4-bis-(2-chloroethyl)aminobenzylamino)-1-methylimidazole-2-carboxamido]imidazole-2-carboxamido}imidazole-2-carboxamide], the “Association constant Kapp” value at poly(dAdT) worked out at 457000 M⁻¹. In addition, the IC50 in assay [1] turned out to be 0.85 µM.
